Data taken from patent US20260262643A1, “HERBICIDAL BENZOXAZINES” (FMC CORPORATION, priority 2022, published 2026).
Read-outs that look alike come from different tables or passages of the source.

Key:
kochia = experiment: Test A preemergence; assay type: in vivo, Bassia scoparia; conditions: for pest or weed control at 125 g/ha / pest or weed control at 500 g/ha: Bassia scoparia, pre-emergence, 240 h, read-out: Plant response rating, Kochia
How it was run: (§1)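 Loam/sand soil; pre-em directed soil spray at planting, post-em spray at 1–2 leaf (2–10 cm). Compound in non-phytotoxic solvent + surfactant. Greenhouse 10 d; visual injury vs untreated, 0 = no effect, 100 = complete control.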

wheat = experiment: Test A preemergence; assay type: in vivo, Triticum aestivum; conditions: for plant injury at 125 g/ha / plant injury at 500 g/ha: Triticum aestivum, pre-emergence, 240 h, read-out: Plant response rating, Wheat
How it was run: as §1

foxtail, giant = experiment: Test A postemergence; assay type: in vivo, Setaria faberi; conditions: postemergence, 10 days; for pest or weed control at 125 g/ha / pest or weed control at 500 g/ha: Setaria faberi, post-emergence, 240 h; for pest or weed control at 125 g/ha: read-out: Foxtail, Giant plant response rating; for pest or weed control at 500 g/ha: read-out: Plant response rating, Foxtail, Giant
How it was run: as §1

ducksalad = experiment: Test B flooded paddy test; assay type: in vivo, Heteranthera limosa; conditions: 250 g ai/ha, Flood, 13 days, 0 to 100 scale (0 no effect, 100 complete control); for pest or weed control at 250 g/ha: Heteranthera limosa, 312 h, read-out: Plant response rating, Ducksalad
How it was run: (§2)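 Compound is introduced into paddy water covering soil by 3 cm, treating plants that have reached two leaves. Pots are kept flooded at that depth under greenhouse conditions. Assessment at 13 days gives a 0–100 visual control score.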

ragweed = experiment: Test A postemergence; assay type: in vivo, Ambrosia artemisiifolia; conditions: postemergence, 10 days; for pest or weed control at 125 g/ha / pest or weed control at 500 g/ha: Ambrosia artemisiifolia, post-emergence, 240 h; for pest or weed control at 125 g/ha / pest or weed control at 500 g/ha / Plant response rating, Ragweed: 0 to 100 scale (0 no effect, 100 complete control); for pest or weed control at 125 g/ha: read-out: Ragweed plant response rating; for pest or weed control at 500 g/ha / Plant response rating, Ragweed: 500 g ai/ha, visual injury; for pest or weed control at 500 g/ha: read-out: Plant response rating, Ragweed
How it was run: as §1

corn = experiment: Test A postemergence; assay type: in vivo, Zea mays; conditions: postemergence, 10 days; for plant injury at 125 g/ha / Corn plant response rating (crop injury, 0 = no effect, 100 = complete kill) at 500 g/ha: Zea mays, post-emergence, 240 h; for plant injury at 125 g/ha: read-out: Corn plant response rating
How it was run: as §1

soybean = experiment: Test A postemergence; assay type: in vivo, Glycine max; conditions: postemergence, 10 days; for plant injury at 125 g/ha / plant injury at 500 g/ha: Glycine max, post-emergence, 240 h; for plant injury at 125 g/ha: read-out: Soybean plant response rating; for plant injury at 500 g/ha: read-out: Plant response rating, Soybean
How it was run: as §1

sedge, umbrella = experiment: Test B flooded paddy test; assay type: in vivo, Cyperus difformis; conditions: 250 g ai/ha, Flood, 13 days, 0 to 100 scale (0 no effect, 100 complete control); for pest or weed control at 250 g/ha: Cyperus difformis, 312 h, read-out: Plant response rating, Sedge, Umbrella
How it was run: as §2

galium = experiment: Test A postemergence; assay type: in vivo, Galium aparine; conditions: postemergence, 10 days; for pest or weed control at 125 g/ha / pest or weed control at 500 g/ha: Galium, post-emergence, 240 h; for pest or weed control at 125 g/ha: read-out: Galium plant response rating; for pest or weed control at 500 g/ha: read-out: Plant response rating, Galium
How it was run: as §1

ryegrass, Italian [1] = experiment: Test A preemergence; assay type: in vivo, Lolium multiflorum; conditions: for pest or weed control at 125 g/ha / pest or weed control at 500 g/ha: Lolium multiflorum, pre-emergence, 240 h, read-out: Plant response rating, Ryegrass, Italian
How it was run: as §1

blackgrass = experiment: Test A preemergence; assay type: in vivo, Alopecurus myosuroides; conditions: for pest or weed control at 125 g/ha / pest or weed control at 500 g/ha: Alopecurus myosuroides, pre-emergence, 240 h, read-out: Plant response rating, Blackgrass
How it was run: as §1

ryegrass, Italian [2] = experiment: Test A postemergence; assay type: in vivo, Lolium multiflorum; conditions: postemergence, 10 days; for pest or weed control at 125 g/ha / pest or weed control at 500 g/ha: Lolium multiflorum, post-emergence, 240 h; for pest or weed control at 125 g/ha: read-out: Ryegrass, Italian plant response rating; for pest or weed control at 500 g/ha: read-out: Plant response rating, Ryegrass, Italian
How it was run: as §1

[3] = 500 g ai/ha, visual injury after 10 days, 0 to 100 scale, 0 is no effect, 100 is complete control
[4] = 125 g ai/ha, 0 to 100 scale (0 no effect, 100 complete control)
[5] = 500 g ai/ha, visual injury, 0 to 100 scale (0 no effect, 100 complete control)
[6] = 125 g ai/ha, 0 to 100 scale, 0 no effect, 100 complete control
[7] = 125 g ai/ha, visual injury after 10 days, 0 to 100 scale, 0 is no effect, 100 is complete control
[8] = 500 g ai/ha, 0 to 100 scale (0 no effect, 100 complete control), 10 days

Row | SMILES | pest or weed control at 500 g/ha (kochia; [3]) | plant injury at 125 g/ha (wheat; 125 g ai/ha, 0 to 100 scale) | plant injury at 500 g/ha (wheat; [3]) | pest or weed control at 125 g/ha (foxtail, giant; [4]) | pest or weed control at 500 g/ha (foxtail, giant; [5]) | pest or weed control at 250 g/ha (ducksalad) | pest or weed control at 125 g/ha (ragweed; 125 g ai/ha) | pest or weed control at 500 g/ha (ragweed) | plant injury at 125 g/ha (corn; [4]) | Corn plant response rating (crop injury, 0 = no effect, 100 = complete kill) at 500 g/ha (corn; [5]) | plant injury at 125 g/ha (soybean; [4]) | plant injury at 500 g/ha (soybean; [5]) | pest or weed control at 250 g/ha (sedge, umbrella) | pest or weed control at 125 g/ha (galium; [4]) | pest or weed control at 500 g/ha (galium; [5]) | pest or weed control at 125 g/ha (ryegrass, Italian [1]; 125 g ai/ha, 0 to 100 scale) | pest or weed control at 500 g/ha (ryegrass, Italian [1]; [3]) | pest or weed control at 500 g/ha (blackgrass; [3]) | pest or weed control at 125 g/ha (ryegrass, Italian [2]; [4]) | pest or weed control at 500 g/ha (ryegrass, Italian [2]; [5]) | further results
1 | C[C@H]1CN(C(=S)c2cccc(-n3cncn3)c2)c2cccc(Cl)c2O1 [Compound 139, [(2S)-8-Chloro-2,3-dihydro-2-methyl-4H-1,4-benzoxazin-4-yl][3-(1H-1,2,4-triazol-1-yl)phenyl]methanethione] | 0% | 20% | 20% | 80% | 100% | 75% | 0% | 30% | 40% | 60% | 90% | 100% | 75% | 80% | 90% | 50% | 80% | 90% | 60% | 100% | pest or weed control at 125 g/ha (kochia; 125 g ai/ha, 0 to 100 scale): 0%; pest or weed control at 125 g/ha (blackgrass; 125 g ai/ha, 0 to 100 scale): 70%
2 | CC(C)c1ncn(-c2cc3c(c(C(=O)N4C[C@H](C)Oc5c(Cl)cccc54)c2)OCC3)n1 [Compound 147] | 90% | 20% | 50% | – | – | 0% | 0% | 30% | 10% | 90% | 100% | 100% | 95% | 100% | 100% | 90% | 100% | 90% | 50% | 80% | pest or weed control at 125 g/ha (kochia; 125 g ai/ha, 0 to 100 scale): 70%; pest or weed control at 125 g/ha (blackgrass; 125 g ai/ha, 0 to 100 scale): 20%
3 | CC(C)c1ncn(-c2cc(C(=O)N3C[C@H](C)Oc4c(Cl)cccc43)c3ccccc3c2)n1 [Compound 145] | 50% | – | 0% | – | 50% | – | – | – | – | 20% | – | 100% | 0% | – | 70% | – | 90% | 80% | – | 40% | Plant response rating, Kochia (kochia; 125 g ai/ha, 0 to 100 scale): 70; Plant response rating, Wheat (wheat; 125 g ai/ha, 0 to 100 scale): 0; Foxtail, Giant plant response rating (foxtail, giant; [6]): 20; Plant response rating, Ducksalad (ducksalad): 40; Ragweed plant response rating (ragweed; [6]): 0; Plant response rating, Ragweed (ragweed): 10; Corn plant response rating (corn; [6]): 10; Soybean plant response rating (soybean; [6]): 40; Galium plant response rating (galium; [6]): 60; Plant response rating, Ryegrass, Italian (ryegrass, Italian [1]; 125 g ai/ha, 0 to 100 scale): 40; Plant response rating, Blackgrass (blackgrass; 125 g ai/ha, 0 to 100 scale): 40; Ryegrass, Italian plant response rating (ryegrass, Italian [2]; [6]): 30
4 | CC(C)c1ncn(-c2cc(C(=O)N3C[C@H](C)Oc4c(Cl)cccc43)c3ccccc3c2)n1 [Compound 146] | – | 0% | – | 30% | – | – | 0% | – | 10% | – | 50% | – | – | 50% | – | 30% | – | – | 20% | – | Plant response rating, Kochia (kochia; 125 g ai/ha, 0 to 100 scale): 10; Plant response rating, Kochia (kochia; [3]): 30; Plant response rating, Wheat (wheat; [3]): 0; Plant response rating, Foxtail, Giant (foxtail, giant; [5]): 50; Plant response rating, Ducksalad (ducksalad): 0; Plant response rating, Ragweed (ragweed): 0; Plant response rating, Corn (corn; [5]): 30; Plant response rating, Soybean (soybean; [5]): 100; Plant response rating, Sedge, Umbrella (sedge, umbrella): 0; Plant response rating, Galium (galium; [5]): 80; Plant response rating, Ryegrass, Italian (ryegrass, Italian [1]; [3]): 70; Plant response rating, Blackgrass (blackgrass; 125 g ai/ha, 0 to 100 scale): 70; Plant response rating, Blackgrass (blackgrass; [3]): 90; Plant response rating, Ryegrass, Italian (ryegrass, Italian [2]; [5]): 40
5 | Cc1cccc2c1O[C@@H](C)CN2C(=O)c1cccc(-n2cnc(C3COC3)n2)c1 [Compound 109, [(2S)-2,3-Dihydro-2,8-dimethyl-4H-1,4-benzoxazin-4-yl][3-[3-(3-oxetanyl)-1H-1,2,4-triazol-1-yl]phenyl]methanone] | – | – | – | 70% | 90% | 75% | 0% | 50% | 60% | 90% | 100% | 100% | 98% | 70% | 100% | – | – | – | 50% | 100% | pest or weed control at 125 g/ha (kochia; [7]): 60%; pest or weed control at 500 g/ha (kochia; [8]): 90%; plant injury at 125 g/ha (wheat; [7]): 40%; plant injury at 500 g/ha (wheat; [8]): 90%; pest or weed control at 125 g/ha (ryegrass, Italian [1]; [7]): 80%; pest or weed control at 500 g/ha (ryegrass, Italian [1]; [8]): 100%; pest or weed control at 125 g/ha (blackgrass; [7]): 80%; pest or weed control at 500 g/ha (blackgrass; [8]): 90%
